Laboratory results taken from patent US11292803B2, “Bioreducible N-oxide-based probes for imaging of hypoxia” (THE BOARD OF TRUSTEES OF THE UNIVERSITY OF ILLINOIS, priority 2018, dated 2022).

Key:
[1] = system: CYP450-rich rat liver microsomes
Method: FIG. 4. […] (a) Representative PA image (770 nm) of reaction mixtures incubated under normoxic or hypoxic conditions for 2 h, then quenched with an equal volume of acetonitrile. Dashed lines indicate positioning of FEP tubes. (b) Change in PA signal (770 nm) produced after 2 h incubation of HyP-1 (10 μM) with rat liver microsomes (RLM) (200 μg/mL) and NADPH (50 μM) in normoxic and hypoxic conditions (n=3). (c) Ratiometric fluorescence turn-on after 2 h incubation of HyP-1 (2 μM) with RLM ([…]) and NADPH (50 μM) in normoxic or hypoxic conditions (n=3). (d) Normalized fluorescent turn-on after 1 h hypoxic incubation of HyP-1 (2 μM) with RLM (100 μg/mL) and NADPH (50 μM) under various conditions. Statistical significance represents a comparison to the hypoxic control (n=6). Results with error bars are represented as mean±SD. **p<0.01, ***p<0.001, ****p<0.0001.
The responsiveness of HyP-1 to hypoxia was first evaluated in vitro via fluorescence by incubating HyP-1 with CYP450-rich rat liver microsomes under atmospheric (normoxic) and oxygen-deprived (hypoxic) conditions. […] The PA response of HyP-1 under identical conditions was evaluated by quenching the reaction mixtures with an equal volume of acetonitrile and transferring the solutions into fluorinated ethylene propylene (FEP) tubes, which were inserted into the centre of a 2 cm thick agarose-based tissue-mimicking phantom.
For hypoxic assays only, cuvettes were sealed with septa, then evacuated and filled with N2 (×3) prior to use. Potassium phosphate buffer (0.1 M, pH 7.4) and NADPH (0.5 mM) were degassed with N2 for 30 minutes. For all assays, phosphate buffer (889 μL) rat liver microsomes (200 μg/mL) and HyP-1 (1 μL, 2 mM in DMSO) were added to the cuvette and pre-incubated at 37° C. for 5 minutes. NADPH (100 μL) was added and incubation continued with fluorescence spectra acquisition occurring at the indicated time points. Spectra were acquired according to the following parameters: λex=672, emission range=685-800 nm and λex=750, emission range=760-900 nm. For BIPY and DPI experiments, the compounds were added from stock solutions (1 M BIPY in DMSO and 50 mM DPI in deionized water) following the 5 minute preincubation, and the buffer volume was adjusted such that the total volume in the cuvette was equal to 1 mL. Deactivated microsomes were prepared by heating in a 45° C. water bath for 30 minutes.

ischemic hindlimb tissue = test: In vivo fluorescence imaging of hindlimb ischemia model; parameters: species or system BALB/c mice; settings: 5 mM co-administered, ischemic hindlimb
Method: To visualize the response of HyP-1 in a model of rapidly developing hypoxia, a murine hindlimb ischemia model of peripheral artery disease was employed. Ischemia was induced in the right hindlimb of BALB/c mice via ligation of the femoral artery. […] After a 1-hour recovery period, HyP-1 (50 μL, 50 μM) was administered via intramuscular injection into both hindlimbs of the mouse. To visualize the time-dependent response of HyP-1 in the ischemic and non-ischemic tissue, ratiometric fluorescence imaging was performed over the course of 1 hour immediately following injection. […]
All in vivo imaging experiments were performed with the approval of the Institutional Animal Care and Use Committee of the University of Illinois at Urbana-Champaign, following the principles outlined by the American Physiological Society on research animal use. […] Animals that underwent unsuccessful surgery as determined by laser Doppler perfusion imaging were excluded from analysis.
Images were obtained using epi-fluorescence with excitation filters of 675 and 745 and corresponding emission filters of 720 and 800, respectively. […] ROIs of equal area were drawn around signals, and the total radiant efficiency in each ROI was determined. Ratiometric signal was calculated by determining the ratio of radiant efficiency corresponding to 800 nm and 720 nm emissions.

4T1 cells = test: Ratiometric fluorescence of cells, IVIS Spectrum; type: cell-based, murine; settings: hypoxic 4T1 cells
Method: Ratiometric fluorescence imaging was also performed on 4T1 cells cultured in 6-well plates using an IVIS Spectrum imaging system. Cells were stained with a 5 μM solution of HyP-1 and incubated in either normoxic or hypoxic conditions for 4 hours (FIG. 5c). […] To further verify the in vitro results and determine the cellular factors responsible for HyP-1 reduction, cells were also stained with HyP-1 solutions containing either BIPY or DPI at multiple concentrations and incubated under hypoxic conditions.
Authenticated 4T1 cells were purchased from ATCC. Cells were grown in RPMI 1640 medium supplemented with 10% fetal bovine serum. Cells were cultured at 37° C. in 5% CO2 and 20% 02 for normoxic conditions. Hypoxic cell culture was performed by incubating cells in a sealed container with a Mitsubishi AnaeroPack™ anaerobic gas generator. Hypoxic conditions were verified with the use of a Mitsubishi RT Anaero-Indicator.
For cellular imaging using the IVIS Spectrum imaging system, cells were plated in a 6-well plate at an initial density of 1.7×10^4 cells/mL and allowed to grow until 60-80% confluent (approximately 3 days). Media was removed and cells were washed with PBS. A […] solution of HyP-1 in serum-free medium was added, and cells were incubated under normoxic or hypoxic conditions for 4 hours. For BIPY and DPI experiments, the staining solution was supplemented with the compound at the appropriate concentration, and ratiometric turn-on was reported relative to a vehicle control. Images were obtained using excitation and emission filter sets of 675/720 nm and 745/800 nm. Regions of interest (ROIs) were drawn around cell-containing wells, and ratiometric signal was calculated by determining the ratio of radiant efficiency corresponding to 800 nm and 720 nm emissions.

[2] = Photophysical characterization (absorbance, emission, extinction coefficient, quantum yield); type: physicochemical

| Structure (SMILES) | Φ ([2]; Table 2) | ε ([2]; Table 2) | λabs ([2]; Table 2) | other results |
| --- | --- | --- | --- | --- |
| c1ccc(-c2ccccn2)nc1 [BIPY, 2,2′-bipyridine, reference compound] |  |  |  | effect on HyP-1 turn-on response / reduction by rat liver microsomes [1]: no significant inhibition; ratiometric fluorescence enhancement with co-administration versus HyP-1 alone (ischemic hindlimb tissue): statistically indistinguishable; effect on cellular response to HyP-1 (4T1 cells; 1 mM): no effect; effect on ratiometric fluorescence of HyP-1 in cells (4T1 cells; 5 mM): only slight reduction |
| [Cl-].c1ccc([I+]c2ccccc2)cc1 [DPI, diphenyliodonium chloride, reference compound] |  |  |  | effect on HyP-1 turn-on response / reduction by rat liver microsomes [1]: inhibition of HyP-1 reduction was achieved; inhibition of HyP-1 ratiometric fluorescence in cells (4T1 cells; multiple concentrations (100, 500 μM)): significant dose-dependent inhibition |
| CC[N+]([O-])(CC)c1ccc(-c2cc(-c3ccccc3)c3n2[B-](F)(F)[N+]2=C(c4ccccc4)C=C(c4ccccc4)C2=N3)cc1 [HyP-650, 4-(5,5-difluoro-1,7,9-triphenyl-5H-54,64-dipyrrolo[1,2-c:2′,1′-f][1,3,5,2]triazaborinin-3-yl)-N,N-diethylaniline oxide] |  |  |  | Φ (fluorescence quantum yield) ([2]; in CHCl3 (Table 3)): 0.027; ε ([2]; in CHCl3 (Table 3)): 4.0 × 10^4 M^−1 · cm^1; λabs ([2]; in CHCl3 (Table 3)): 650 nm |
| CCN(CC)c1ccc(C2=[N+]3C(=Nc4c(-c5ccccc5)cc(-c5ccc([N+]([O-])(CC)CC)cc5)n4[B-]3(F)F)C(c3ccccc3)=C2)cc1 [rHyP-1, 4-(7-(4-(diethylamino)phenyl)-5,5-difluoro-1,9-diphenyl-5H-5λ^4,6λ^4-dipyrrolo[1,2-c:2′,1′-f][1,3,5,2]triazaborinin-3-yl)-N,N-diethylaniline oxide] | 0.013 | 5.8 × 10^4 M^−1 · cm^1 | 749 nm |  |
| CN(C)c1ccc(C2=[N+]3C(=Nc4c(-c5ccccc5)cc(-c5ccc([N+](C)(C)[O-])cc5)n4[B-]3(F)F)C(c3ccccc3)=C2)cc1 [rHyP-2] | 0.021 | 4.6 × 10^4 M^−1 · cm^1 | 738 nm |  |
| CCCN(CCC)c1ccc(C2=[N+]3C(=Nc4c(-c5ccccc5)cc(-c5ccc([N+]([O-])(CCC)CCC)cc5)n4[B-]3(F)F)C(c3ccccc3)=C2)cc1 [rHyP-3] | 0.013 | 8.0 × 10^4 M^−1 · cm^1 | 747 nm |  |
| [O-][N+]1(c2ccc(-c3cc(-c4ccccc4)c4n3[B-](F)(F)[N+]3=C(c5ccc(N6CCCCC6)cc5)C=C(c5ccccc5)C3=N4)cc2)CCCCC1 [rHyP-4] | 0.011 | 9.1 × 10^4 M^−1 · cm^1 | 748 nm |  |
| [O-][N+]1(c2ccc(-c3cc(-c4ccccc4)c4n3[B-](F)(F)[N+]3=C(c5ccc(N6CCOCC6)cc5)C=C(c5ccccc5)C3=N4)cc2)CCOCC1 [rHyP-5] | 0.049 | 9.2 × 10^4 M^−1 · cm^1 | 718 nm |  |
| CCN(CC)c1ccc(-c2cc(-c3ccccc3)c3n2[B-](F)(F)[N+]2=C(c4ccccc4)C=C(c4ccccc4)C2=N3)cc1 [red-HyP-650, 4-(5,5-difluoro-1,7,9-triphenyl-5H-54,64-dipyrrolo[1,2-c:2′,1′-f][1,3,5,2]triazaborinin-3-yl)-N,N-diethylaniline] |  |  |  | Φ (fluorescence quantum yield) ([2]; in CHCl3 (Table 3)): 0.069; ε ([2]; in CHCl3 (Table 3)): 8.1 × 10^4 M^−1 · cm^1; λabs ([2]; in CHCl3 (Table 3)): 740 nm |
| CCN(CC)c1ccc(C2=[N+]3C(=Nc4c(-c5ccccc5)cc(-c5ccc(N(CC)CC)cc5)n4[B-]3(F)F)C(c3ccccc3)=C2)cc1 [red-rHyP-1, 4,4′-(5,5-difluoro-1,9-diphenyl-5H-4λ^4,5λ^4-dipyrrolo[1,2-c:2′,1′-f][1,3,5,2]triazaborinine-3,7-diyl)bis(N,N-diethylaniline)] | 0.013 | 9.9 × 10^4 M^−1 · cm^1 | 818 nm |  |
| CN(C)c1ccc(C2=[N+]3C(=Nc4c(-c5ccccc5)cc(-c5ccc(N(C)C)cc5)n4[B-]3(F)F)C(c3ccccc3)=C2)cc1 [red-rHyP-2] | 0.023 | 8.2 × 10^4 M^−1 · cm^1 | 798 nm |  |
| CCCN(CCC)c1ccc(C2=[N+]3C(=Nc4c(-c5ccccc5)cc(-c5ccc(N(CCC)CCC)cc5)n4[B-]3(F)F)C(c3ccccc3)=C2)cc1 [red-rHyP-3] | 0.010 | 9.3 × 10^4 M^−1 · cm^1 | 826 nm |  |
| F[B-]1(F)n2c(-c3ccc(N4CCCCC4)cc3)cc(-c3ccccc3)c2N=C2C(c3ccccc3)=CC(c3ccc(N4CCCCC4)cc3)=[N+]21 [red-rHyP-4] | 0.017 | 7.6 × 10^4 M^−1 · cm^1 | 787 nm |  |
| F[B-]1(F)n2c(-c3ccc(N4CCOCC4)cc3)cc(-c3ccccc3)c2N=C2C(c3ccccc3)=CC(c3ccc(N4CCOCC4)cc3)=[N+]21 [red-rHyP-5] | 0.085 | 7.6 × 10^4 M^−1 · cm^1 | 758 nm |  |
